B1: GST-vBcl-2 (1–146) with N67D/V117A (domain or fragment)
chain: MDEDVLPGEVLAIEGIFMACGLNEPEYLYHPLLSPIKLYITGLMRDKESLFEAMLANVRFHSTTGIDQLGLSMLQVSGDGNMNWGRALAILTFGSFVAQKLSNEPHLRDFALAVLPAYAYEAIGPQWFRARGGWRGLKAYCTQVLT

Experiments:
[1] = target: vBcl-2 (Human gammaherpesvirus 8, UniProt Q76RI8, N67D/V117A); experiment: surface plasmon resonance; type: binding
[2] = target: vBcl-2–NM23-H2 complex (Human gammaherpesvirus 8, UniProt Q76RI8, N67D/V117A); experiment: HTRF protein-protein interaction assay; type: binding
[3] = target: B1; experiment: AlphaScreen or HTRF
[4] = target: His-NM23-H2 (human, UniProt P22392 1-152); experiment: AlphaScreen or HTRF

## Cc1nc(Nc2nc3ccccc3o2)[nH]c(=O)c1C [VBNI-1, 2-(Benzo[d]oxazol-2-ylamino)-5,6-dimethylpyrimidin-4(3H)-one]
[1]
  Kd: 0.875 µM
[2]
  IC50: ~0.064 µM

## EDIIRNIARHLAQVGDSMDR [BID BH3 peptide]
[3]
  binding result: binds

## B1
[4]
  binding result: binds

— publication PMC12337130 (Nature microbiology, 2025)
